In patent US7087758B2, “Quinoline inhibitors of hyaki and hyak3 kinases” (SmithKline Beecham Corporation, priority 2001, dated 2006):
“And” between values parts separate entries of the source, which are not always exact repeats. Identical values can stand only once.

Molecular target: T1, hYAK1 (Homo sapiens, UniProt Q92630)
T1 construct: DET1/DET2-tagged full length hYAK1 was expressed in Drosophila sf9 cells; DET1/DET2 tag (purified on Ni column); made in house; host or cells: "Drosophila sf9 cells" as printed (insect cells)
T1 sequence (Q92630 1-528 isoform Q92630-2): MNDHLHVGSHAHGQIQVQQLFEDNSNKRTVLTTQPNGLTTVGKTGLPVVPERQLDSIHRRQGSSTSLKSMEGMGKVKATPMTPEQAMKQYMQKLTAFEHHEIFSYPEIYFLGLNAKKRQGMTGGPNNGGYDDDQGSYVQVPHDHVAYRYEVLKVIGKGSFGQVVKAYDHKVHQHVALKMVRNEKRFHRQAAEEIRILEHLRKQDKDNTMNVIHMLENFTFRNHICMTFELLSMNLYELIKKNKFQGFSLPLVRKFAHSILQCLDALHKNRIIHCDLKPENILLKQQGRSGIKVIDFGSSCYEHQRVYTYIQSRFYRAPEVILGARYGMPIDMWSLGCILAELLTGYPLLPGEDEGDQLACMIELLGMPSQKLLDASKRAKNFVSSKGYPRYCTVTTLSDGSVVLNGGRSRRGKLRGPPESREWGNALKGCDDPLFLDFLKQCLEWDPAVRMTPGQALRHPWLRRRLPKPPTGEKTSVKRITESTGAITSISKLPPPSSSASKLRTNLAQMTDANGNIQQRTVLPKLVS
Test: FlashPlate kinase assay of hYAK1 (Ni-hYAK1)
Type: biochemical
Experimental: This same assay can be performed on a FlashPlate format in which the plate is coated with MBP or with the S164 peptide by incubation overnight at 4° C. in 100 ul of either substrate dissolved in Sodium Carbonate buffer, pH 8.8. When coating with MBP, a solution of 100 ug/ml MBP was used to coat wells with 100 ul (10 ug) MBP per well. When coating with Ser164, a solution of 0.4 mg/ml (0.25 mM) was used to coat wells with 100 ul (40 ug) Ser164 per well. An example of a FlashPlate assay protocol and typical results are given below:
• 1. Coat Maxisorp plates (Nunk, Immunoplate, Maxisorp™) with MBP or Ser164 as above. • 2. Wash plates once with kinase assay buffer (KB): 25 mM Hepes, pH 7.5; 0.2 mM NaV; 10 mM.-glycerol phosphate; 1 mM Na pyrophosphate • 3. Add enzyme (Ni-hYAK1, diluted in KB), DMSO or inhibitors (in KB) and keep on ice 30 min • 4. Add KB containing Mg/AJP to a [final] of 0.1 mM [.-33P]ATP and 10 mM MgCl2 • 5. Incubate with shaking, 1–2 hrs, RT • 6. Aspirate and wash 6×0.5 ml KB • 7. Read 33P incorporation in FP reader • 8. Blank=No enzyme added • 9. Reaction volume: 25, 50 or 100 ul • 10. 0.5 or 1.0 uCi 33P/0.1 mM ATP • 11. MBP-FP better than basic FP (in house coating) • 12. 37° C. incubation was not better (several time points) • 13. Other incubation times at RT were not better Results: […]

Row | IC50 (0.1 ug hYAK1) [nM] | SMILES | IC50 (0.3 ug hYAK1)
1 | – | COC(=O)[C@@]1(O)C[C@H]2O[C@]1(C)n1c3ccccc3c3c4c(c5c6ccccc6n2c5c31)C(=O)NC4 [Example K252a] | 552 nM and 427 nM
2 | 190 | NC1=N/C(=C2/CCNC(=O)c3[nH]c(Br)cc32)C(=O)N1 [SKF-108752] | 130 nM and 160 nM
